pIC50: −log10 of the molar value.
Experiments:
Type in all cases: functional, cell-based
CHO-AA8 = assay: Compound was evaluated for cytotoxicity against CHO AA8 cell lines for 4 hr at pH-7.4; details: Cricetulus griseus, CHO-AA8, 4 h
EMT6 = assay: Compound was evaluated for cytotoxicity against murine mammary carcinoma EMT6 cell lines for 4 hr at pH-7.4; details: Mus musculus, EMT6, 4 h
UV4 = assay: Compound was evaluated for cytotoxicity against CHO UV4 cell lines for 4 hr at pH-7.4; details: Cricetulus griseus, UV4, 4 h

Row | Compound | pIC50 (CHO-AA8) | pIC50 (EMT6) | pIC50 (UV4)
1 | CNc1ccc2c(c1)N(C(=O)c1cc3cc(OC)c(OC)c(OC)c3[nH]1)CC2CCl (configuration not stated) | 6.66 | 6.96 | 7.26
2 | CS(=O)(=O)N1CC(CCl)c2ccc(S)cc21 (configuration not stated) | < 3.70 | < 3.70 | 3.91
3 | CSc1ccc2c(c1)N(S(C)(=O)=O)CC2CCl (configuration not stated) | < 3.70 | < 3.70 | < 3.70
4 | CNc1ccc2c(c1)N(S(C)(=O)=O)CC2CCl (configuration not stated) | 4.30 | 4.89 | 5.39
5 | COc1cc2cc(C(=O)N3CC(CCl)c4ccc(N(C)C)cc43)[nH]c2c(OC)c1OC (configuration not stated) | 6.55 | 6.96 | 7.06
6 | COc1cc2cc(C(=O)N3CC(CCl)c4ccc(N)cc43)[nH]c2c(OC)c1OC (configuration not stated) | 6.49 |  | 7.23
7 | CS(=O)(=O)N1CC(CCl)c2ccc(O)cc21 (configuration not stated) | 4.70 | 5.11 | 5.72
8 | CS(=O)(=O)N1CC(CCl)c2ccc(SSc3ccc4c(c3)N(S(C)(=O)=O)CC4CCl)cc21 (configuration not stated) | < 4.30 | < 4.30 | < 4.30
9 | CN(C)c1ccc2c(c1)N(S(C)(=O)=O)CC2CCl (configuration not stated) | 4.14 | 4.70 | 4.82
10 | CS(=O)(=O)N1CC(CCl)c2ccc(N)cc21 (configuration not stated) | 3.80 | 4.48 | 4.89
11 | COc1cc2cc(C(=O)N3CC(CCl)c4ccc(O)cc43)[nH]c2c(OC)c1OC (configuration not stated) | 8.19 | 8.66 | 9.00

Source: ChEMBL document CHEMBL1150447, “Nitrogen and sulfur analogues of the secoCI alkylating agent: Synthesis and cytotoxicity” (Bioorg Med Chem Lett, 1996)
